Experimental data as given in paper PMC9241644, “Evaluation of Novel Quorum Sensing Inhibitors Targeting Auto-Inducer 2 (AI-2) for the Control of Avian Pathogenic Escherichia coli Infections in Chickens” (Microbiology Spectrum, 2022).

What was measured:
Rif^R APEC O78 [1] = assay: Efficacy of QSIs in APEC-infected chickens (oral gavage pilot); format: in vivo, Escherichia coli; settings: for Average lesion severity, Lung / Average lesion severity, Liver / Average lesion severity, Airsac / Average lesion severity, Heart / Mortality rate % (Nr.) / Average APEC load, Liver / Average APEC load, Heart / Average APEC load, Kidney / Average APEC load, Lung: Table S1, oral gavage pilot; for Average lesion severity, Lung / Average lesion severity, Liver / Average lesion severity, Airsac / Average lesion severity, Heart: lesion score; for Average lesion severity, Lung: PC 1.25; for Average lesion severity, Liver: PC 1.75; for Average lesion severity, Airsac: PC 2.00; for Average lesion severity, Heart: PC 2.25; for Mortality rate % (Nr.): n = 6/group, 8 DPI, PC 66.6 (4/6); for Average APEC load, Liver: PC 5.95; for Average APEC load, Heart: PC 5.98; for Average APEC load, Kidney: PC 6.81; for Average APEC load, Lung: PC 6.83; for reduction in mortality compared with the PC group / average APEC load reduction in the internal organs (liver, heart, lung, kidney) compared with PC: chickens, QSI oral gavage once daily 5 days, s/c APEC O78 1 × 10^7 CFU/bird; for reduction in mortality compared with the PC group: PC mortality normalized to 100%; for average APEC load reduction in the internal organs (liver, heart, lung, kidney) compared with PC: range over organs
Experimental: The chicken experiment was carried out using 1-day-old broiler chickens (Mayer Hatchery, OH, USA). Feed and water were given ad libitum. Chickens (n = 6/group) were administered with the QSIs (QSI-1, QSI-2, QSI-5 − 8, QSI-10, ChemBridge, San Diego, CA); previously designated as C1, C2, C5, C6, C7, C8, C10 ([17]) using oral gavage. These compounds were selected based on their high efficacy in in vitro studies and the doses correspond to 30X of the initial in vitro screening concentration ([17]). The QSIs were suspended in dimethyl sulfoxide (DMSO; used as a vehicle) and administered once daily for 5 successive days (starting from day 4 to day 8). The first dose was administered 1 day before the challenge, followed by the second dose on the challenge day (2 h before challenge), followed by three additional doses on subsequent days. Feeders were removed 1 h prior to the treatment and replaced 1 h after the treatment. Chickens were challenged subcutaneously (s/c) on day 5 with Rif^R APEC O78 (1 × 10^7 CFU/bird) in PBS using syringe (27 gauge, 0.5 in.). The challenge dose, which […], was chosen based on preliminary experiments conducted with different infection routes (subcutaneous s/c, intra-tracheal and intra-airsacs) and different doses (10^6, 10^7, and 10^8 CFU/chicken). […] Therefore, we selected this challenge dose and route for evaluation of QSIs in chickens ([34]). The positive (PC; infected with APEC O78 and DMSO treated) and negative (NC; non-infected and non-treated) control groups were included.
(§1) Chickens were monitored for clinical signs for 8 DPI. Any chickens moribund during this period were humanely euthanized and necropsied to determine bacterial load in the internal organs (liver, heart, lung, and kidney). Internal organs were aseptically collected, weighed and suspended in 1× PBS, the amount of PBS added was adjusted based on the organ size to make a suspension, the organ size and amount of PBS added were included in the final calculation of the CFU. The samples were homogenized, serially diluted 10-fold, plated on MacConkey agar (Remel, CA, USA) containing 50 μg/mL rifampicin, and incubated at 37°C for 24 h to determine the CFU/g. Pathological lesions severity in internal organs (pericarditis, perihepatitis, airsacculitis, and lung congestion) was scored as described previously ([21], [59]). At 8 DPI, the remaining chickens were humanely euthanized and necropsied, lesions were scored, and the APEC load was quantified in internal organs as described above.

Rif^R APEC O78 [2] = assay: Comparative efficacy of QSI-5 and SDM in field simulated conditions (built-up floor litter); format: in vivo, Escherichia coli
From the text: as §1
To compare the efficacy of QSI-5 with an antibiotic SDM currently used in the field, chickens (n = 70) were raised on built-up floor litter in a field-simulated conditions. One-day-old broiler chickens (Case Farms Ohio Hatchery, OH, USA) were used for conducting the experiment. The optimized dose of QSI-5 (1 mg/L) and the therapeutic dose of SDM (495.323 mg/L) (0.05%) were given in drinking water daily for 7 days (starting from day 5 to day 11 of age). The volume of drinking water needed daily was determined as described above. On day 6, the chickens were infected s/c with Rif^r APEC O78 (5 × 10^6 CFU/chicken, s/c). PC (0.05% DMSO treated and infected) and NC (non-infected and non-treated) control groups were included. The mortality was recorded daily until the end of the experiment (42 days of age: slaughter age). At 8 DPI, half of the chickens from each group were necropsied, lesions were scored, and the APEC load was quantified in the internal organs as described above. The other half of the chickens were raised until day 42 to determine the impact of treatment on the body weight gain and feed intake. To calculate the FCR, body weight was measured once every week and feed intake was recorded every day. On day 42, the remaining chickens were euthanized, body weight was measured and 10 chickens from each group were randomly selected and necropsied, lesions and APEC load were assessed in the internal organs.

[3] = QSI-5 and SDM residue quantification in muscle, kidney and liver (LC-MS); format: in vivo, chickens; settings: in vivo
Experimental: The safety of QSI-5 and SDM was assessed by measuring the level of drug residue in the muscle, kidney, and liver using LC-MS (CCIC, MS&P Facility, OSU) as described before ([34]). As described above, chickens were administered with the optimized dose of QSI-5 (1 mg/L) and the therapeutic dose of SDM (495.323 mg/L) (0.05%) in drinking water daily for 7 days (starting from day 5 to day 11 of age). Tissue samples were collected individually from chickens treated with QSI-5 and SDM (five chickens per group) from experimental set up as described for floor trial at 2 DPLT, 5 DPLT, and […] (slaughter age). All samples were weighed and extracted at a 400 mg/mL ratio of tissue in the extraction solution (50:50 H2O: ACN). Samples were homogenized using a probe sonicator 20 times and centrifuged at 13,000 × g for 30 min. Sixty μL of the supernatant was transferred into glass vials and dried in a SpeedVac for 1.5 h, and then resuspended in 120 μL of 25:25:50 H2O:ACN:MeOH. Standard calibration, LC system, mass spectrometer, and drug target monitoring were performed as described above. Calibration standard curves for measuring the accumulation of QSI-5 and SDM in the kidney, liver, and muscle are shown in Fig. S6A and S6B.

Row | SMILES | Average lesion severity, Lung (Rif^R APEC O78 [1]) | Average lesion severity, Liver (Rif^R APEC O78 [1]) | Average lesion severity, Airsac (Rif^R APEC O78 [1]) | Average lesion severity, Heart (Rif^R APEC O78 [1]) | Mortality rate % (Nr.) (Rif^R APEC O78 [1]) [%] | Average APEC load, Liver (Rif^R APEC O78 [1]) | Average APEC load, Heart (Rif^R APEC O78 [1]) | Average APEC load, Kidney (Rif^R APEC O78 [1]) | Average APEC load, Lung (Rif^R APEC O78 [1]) | reduction in mortality compared with the PC group (Rif^R APEC O78 [1]) | other results
1 | Cc1ccccc1N1CCN(C2CCCN(C(=O)c3ccc(F)c(Cl)c3)C2)CC1 (stereo not drawn) [QSI-2] | 0.17 | 1.00 | 0.92 | 1.67 | 33.3 | 4.20 Log CFU/g of tissue | 4.87 Log CFU/g of tissue | 5.07 Log CFU/g of tissue | 5.15 Log CFU/g of tissue | 50% | –
2 | OCCC1CN(C2CCN(c3ccccc3)CC2)CCN1CCCc1ccccc1 (stereo not drawn) [QSI-10] | 0.00 | 0.00 | 0.17 | 0.33 | 16.6 | 2.50 Log CFU/g of tissue | 2.50 Log CFU/g of tissue | 2.47 Log CFU/g of tissue | 3.08 Log CFU/g of tissue | – | –
3 | COc1cc(NS(=O)(=O)c2ccc(N)cc2)nc(OC)n1 [SDM, sulfadimethoxine] | – | – | – | – | – | – | – | – | – | – | Average lesion severity, Lung (Rif^R APEC O78 [2]; Table S3, PC 1.85): 1.17; Average lesion severity, Liver (Rif^R APEC O78 [2]; Table S3, PC 2.52): 2.03; Average lesion severity, Airsac (Rif^R APEC O78 [2]; Table S3, PC 3.36): 2.50; Average lesion severity, Heart (Rif^R APEC O78 [2]; Table S3, PC 3.58): 2.83; Average APEC load, Liver (Rif^R APEC O78 [2]; Table S3, PC 7.24): 5.05 Log CFU/ g of tissue; Average APEC load, Lung (Rif^R APEC O78 [2]; Table S3, PC 7.68): 6.17 Log CFU/ g of tissue; Average APEC load, Kidney (Rif^R APEC O78 [2]; Table S3, PC 7.73): 5.33 Log CFU/ g of tissue; Average APEC load, Heart (Rif^R APEC O78 [2]; Table S3, PC 7.92): 5.69 Log CFU/ g of tissue; Mortality rate % (Nr.) (Rif^R APEC O78 [2]; Table S3, until 42 days of age, QSI-5 (8/63), SDM (19/65), PC 45.6 (31/68)): 29.2%; reduction in mortality compared with the PC group (Rif^R APEC O78 [2]; built-up floor litter, QSI-5 1 mg/L, SDM 495.3 mg/L (0.05%) in drinking water 7 days, s/c APEC O78 5 × 10^6 CFU/chicken): 35.9%; Drug accumulation, Liver (ppm± SD) ([3]; broiler, chicken, 35 DPLT): 0.0 ± 0.0 ppm; Drug accumulation, Muscle (ppm± SD) ([3]; broiler, chicken, 35 DPLT): 0.0 ± 0.0 ppm; Drug accumulation, Kidney (ppm± SD) ([3]; commercial broiler, chicken, 35 DPLT): 0.0 ± 0.0 ppm; residue in any tissues [3]: no detectable residues
4 | COCCN1CCC(CN(Cc2cccnc2)Cc2ccccc2Cl)CC1 [QSI-1] | 0.50 | 2.17 | 1.83 | 3.00 | 50 | 5.30 Log CFU/g of tissue | 5.63 Log CFU/g of tissue | 6.28 Log CFU/g of tissue | 5.92 Log CFU/g of tissue | 25% | average APEC load reduction in the internal organs (liver, heart, lung, kidney) compared with PC (Rif^R APEC O78 [1]): did not reduce the APEC load
5 | O=C(CCN1CCN(c2ccccc2F)CC1)Nc1ccc(Br)cc1 [QSI-7] | 0.17 | 1.33 | 1.00 | 1.33 | 66.6 | 5.95 Log CFU/g of tissue | 6.13 Log CFU/g of tissue | 6.13 Log CFU/g of tissue | 6.10 Log CFU/g of tissue | did not reduce mortality | average APEC load reduction in the internal organs (liver, heart, lung, kidney) compared with PC (Rif^R APEC O78 [1]): did not reduce the APEC load
6 | O=[N+]([O-])c1cccc(S(=O)(=O)Nc2ccc(Br)cc2)c1 [QSI-6] | 0.50 | 0.83 | 1.17 | 1.50 | 66.6 | 4.62 Log CFU/g of tissue | 4.87 Log CFU/g of tissue | 5.35 Log CFU/g of tissue | 5.17 Log CFU/g of tissue | did not reduce mortality | –
7 | CCc1ccccc1NC1NC(c2c(C)nc3ccccn23)=CS1 (stereo not drawn) [QSI-8] | 0.17 | 0.50 | 0.50 | 0.50 | 33.3 | 3.48 Log CFU/g of tissue | 3.60 Log CFU/g of tissue | 3.65 Log CFU/g of tissue | 4.60 Log CFU/g of tissue | 50% | –
